Drawing on publication PMC8577999 (Slas Discovery, 2021), this text covers IC50 for 1 compound.

SMILES strings stand for the structures.

Common to all, as to assay type: cell-based, SARS-CoV-2
In one assay the test system is SARS2-S D614G. Particulars: read-out: D614G IC50.
The next assay deals with SARS2-S N501Y-D614G. Particulars: read-out: N501Y-D614G IC50.
For assay [1], the system named is SARS2-S UK variant (B.1.1.7). The experiment in a line: microbe, parasite or virus in culture. Particulars: Severe acute respiratory syndrome coronavirus 2, read-out: UK IC50.
Assay [2] concerns SARS2-S SA variant (B.1.351). The experiment in a line: microbe, parasite or virus in culture. Particulars: Severe acute respiratory syndrome coronavirus 2, read-out: SA IC50.

The IC50 is the point on the concentration scale where inhibition reaches its midpoint. For `CCCC[C@@H](C=O)NC(=O)[C@H](CC(C)C)NC(=O)OCc1ccccc1` [SR-914, calpeptin], the IC50 in the assay on SARS2-S D614G came out at 11.5 nM; in the assay on SARS2-S N501Y-D614G it was 8.98 nM; in assay [1], 34.7 nM; in assay [2], 6.58 nM.
